Converted amounts (≈) assume the structure as drawn.
How the values were obtained:
[1] = tested on: Helicobacter pylori; experiment: Antibacterial activity against Helicobacter pylori NCTC 11637; assay type: functional
[2] = tested on: Helicobacter pylori; experiment: Antibacterial activity against Helicobacter pylori; assay type: functional
[3] = tested on: Helicobacter pylori; experiment: Antibacterial activity against metronidazole-resistant Helicobacter pylori clinical isolates; assay type: functional
[4] = tested on: Helicobacter pylori; experiment: Antibacterial activity against metronidazole-resistant Helicobacter pylori; assay type: functional
[5] = tested on: Helicobacter pylori; experiment: Potency index, ratio of metronidazole MIC90 to test compound MIC90 for metronidazole-resistant Helicobacter pylori; assay type: functional
[6] = tested on: Staphylococcus aureus; experiment: Antibacterial activity against Staphylococcus aureus; assay type: functional
[7] = tested on: Escherichia coli; experiment: Antibacterial activity against Escherichia coli; assay type: functional
[8] = tested on: Pseudomonas aeruginosa; experiment: Antibacterial activity against Pseudomonas aeruginosa; assay type: functional
[9] = tested on: Candida albicans; experiment: Antifungal activity against Candida albicans; assay type: functional
[10] = tested on: Proteus vulgaris; experiment: Antibacterial activity against Proteus vulgaris; assay type: functional
[11] = tested on: Klebsiella aerogenes; experiment: Antibacterial activity against Klebsiella aerogenes; assay type: functional
[12] = tested on: Enterococcus faecalis; experiment: Antibacterial activity against Enterococcus faecalis; assay type: functional
[13] = tested on: Staphylococcus epidermidis; experiment: Antibacterial activity against Staphylococcus epidermidis; assay type: functional
[14] = tested on: Salmonella typhimurium; experiment: Antibacterial activity against Salmonella typhimurium; assay type: functional, Salmonella enterica subsp. enterica serovar Typhimurium; conditions: Salmonella enterica
[15] = tested on: Streptococcus pyogenes; experiment: Antibacterial activity against Streptococcus pyogenes; assay type: functional
[16] = tested on: Escherichia coli; experiment: Antibacterial activity against Escherichia coli infected in mouse; assay type: functional
[17] = tested on: Staphylococcus epidermidis; experiment: Antibacterial activity against methicillin-sensitive Staphylococcus epidermidis by two fold dilution method; assay type: functional
[18] = tested on: Staphylococcus aureus; experiment: Antibacterial activity against methicillin-sensitive Staphylococcus aureus by two fold dilution method; assay type: functional
[19] = tested on: Helicobacter pylori; experiment: Antibacterial activity against Helicobacter pylori clinical isolate assessed as zone of inhibition at 8 ug/disc; assay type: functional; conditions: read-out: IZ
[20] = tested on: Helicobacter pylori; experiment: Antibacterial activity against drug-resistant Helicobacter pylori assessed as zone of inhibition at 8 ug/disc; assay type: functional; conditions: read-out: IZ
[21] = tested on: Helicobacter pylori; experiment: Antibacterial activity against drug-sensitive Helicobacter pylori assessed as zone of inhibition at 8 ug/disc; assay type: functional; conditions: read-out: IZ
[22] = tested on: Clostridioides difficile; experiment: Antibacterial activity against Clostridium difficile R20291 assessed as zone of inhibition at 2.5 ug/disc after 24 hrs; assay type: functional; conditions: read-out: IZ
[23] = tested on: Clostridioides difficile; experiment: Antibacterial activity against Clostridium difficile ATCC 43603 assessed as zone of inhibition at 2.5 ug/disc after 24 hrs; assay type: functional; conditions: ATCC 43603, 24 h, read-out: IZ
[24] = tested on: Clostridioides difficile; experiment: Antibacterial activity against Clostridium difficile 630 assessed as zone of inhibition at 2.5 ug/disc after 24 hrs; assay type: functional; conditions: Clostridioides difficile, 630, 24 h; read-out: IZ
[25] = tested on: Staphylococcus aureus; experiment: Antibacterial activity against Staphylococcus aureus ATCC 6538 after 18 hrs by two fold serial dilution; assay type: functional; conditions: ATCC 6538, 18 h
[26] = tested on: Bacillus subtilis; experiment: Antibacterial activity against Bacillus subtilis PTCC 1023 after 18 hrs by two fold serial dilution; assay type: functional; conditions: PTCC 1023, 18 h
[27] = tested on: Klebsiella pneumoniae; experiment: Antibacterial activity against Klebsiella pneumoniae ATCC 10031 after 18 hrs by two fold serial dilution; assay type: functional; conditions: ATCC 10031, 18 h
[28] = tested on: Escherichia coli; experiment: Antibacterial activity against Escherichia coli ATCC 8739 after 18 hrs by two fold serial dilution; assay type: functional; conditions: ATCC 8739, 18 h
[29] = tested on: Staphylococcus epidermidis; experiment: Antibacterial activity against Staphylococcus epidermidis ATCC 12228 after 18 hrs by two fold serial dilution; assay type: functional; conditions: ATCC 12228, 18 h
[30] = tested on: Enterococcus faecalis; experiment: Antibacterial activity against Enterococcus faecalis after 24 hrs; assay type: functional
[31] = tested on: Staphylococcus aureus; experiment: Antibacterial activity against Staphylococcus aureus ATCC 25923 after 24 hrs; assay type: functional; conditions: ATCC 25923, 24 h
[32] = tested on: Staphylococcus aureus; experiment: Antibacterial activity against Staphylococcus aureus ATCC 29213 after 24 hrs; assay type: functional; conditions: ATCC 29213, 24 h
[33] = tested on: Staphylococcus aureus; experiment: Antibacterial activity against methicillin-resistant Staphylococcus aureus after 24 hrs; assay type: functional
[34] = tested on: Pseudomonas aeruginosa; experiment: Antibacterial activity against Pseudomonas aeruginosa after 24 hrs; assay type: functional
[35] = tested on: Pseudomonas aeruginosa; experiment: Antibacterial activity against Pseudomonas aeruginosa ATCC 27853 after 24 hrs; assay type: functional; conditions: ATCC 27853, 24 h
[36] = tested on: Escherichia coli; experiment: Antibacterial activity against Escherichia coli ATCC 25922 after 24 hrs; assay type: functional; conditions: ATCC 25922, 24 h
[37] = tested on: Klebsiella pneumoniae; experiment: Antibacterial activity against Klebsiella pneumoniae after 24 hrs; assay type: functional
[38] = tested on: Escherichia coli; experiment: Antibacterial activity against drug-resistant Escherichia coli after 24 hrs; assay type: functional

Work on Cc1ncc([N+](=O)[O-])n1CCNCc1nonc1C(N)=O yielded an MIC90 [1] of 0.5 to 32 µg/mL (≈ 1.69 to 108 µM) and an MIC90 [2] of 0.5 to 32 µg/mL (≈ 1.69 to 108 µM).

Cc1ncc([N+](=O)[O-])n1CCOc1nonc1S(=O)(=O)c1ccccc1 showed an MIC90 [1] of 0.5 to 32 µg/mL (≈ 1.32 to 84.4 µM), an MIC90 [3] of 0.5 to 32 µg/mL (≈ 1.32 to 84.4 µM) and an MIC90 [2] of 1 to 4 µg/mL (≈ 2.64 to 10.5 µM).

Compound Cc1nonc1CNCCn1c([N+](=O)[O-])cnc1C has an MIC90 [1] of 0.5 to 32 µg/mL (≈ 1.88 to 120 µM) and an MIC90 [2] of 0.5 to 32 µg/mL (≈ 1.88 to 120 µM).

Cc1ncc([N+](=O)[O-])n1CCOc1no[n+]([O-])c1-c1ccccc1 was tested, and the MIC90 [1] was 0.5 to 32 µg/mL (≈ 1.51 to 96.6 µM), the MIC90 [3] was 0.5 to 32 µg/mL (≈ 1.51 to 96.6 µM) and the MIC90 [2] was 1 to 4 µg/mL (≈ 3.02 to 12.1 µM).

Cc1ncc([N+](=O)[O-])n1CCNCc1no[n+]([O-])c1C#N showed an MIC90 [1] of 0.5 to 32 µg/mL (≈ 1.71 to 109 µM), an MIC90 [3] of 0.5 to 32 µg/mL (≈ 1.71 to 109 µM) and an MIC [2] of 5 µg/mL (≈ 17.1 µM). It also gave an MIC90 [2] of 0.5 µg/mL (≈ 1.71 µM), an MIC [4] of 0.25 to 1 µg/mL (≈ 0.853 to 3.41 µM) and an MIC90 [4] of 1 µg/mL (≈ 3.41 µM). For the same compound, the Ratio [5] was >32.

Work on O=C(N[C@H](CO)[C@H](O)c1ccc([N+](=O)[O-])cc1)C(Cl)Cl [CHLORAMPHENICOL] yielded an MIC [6] of 7.8 to 250 µg/mL (≈ 24.1 to 774 µM), an MIC [7] of 7.8 to 250 µg/mL (≈ 24.1 to 774 µM) and an MIC [8] of 7.8 to 250 µg/mL (≈ 24.1 to 774 µM). The MIC [9] was 7.8 to 250 µg/mL (≈ 24.1 to 774 µM), the MIC [10] was 7.8 to 250 µg/mL (≈ 24.1 to 774 µM) and the MIC [11] was 7.8 to 250 µg/mL (≈ 24.1 to 774 µM). For the same compound, the MIC [12] was 7.8 to 250 µg/mL (≈ 24.1 to 774 µM), the MIC [13] was 7.8 to 250 µg/mL (≈ 24.1 to 774 µM) and the MIC [14] was 7.8 to 250 µg/mL (≈ 24.1 to 774 µM).

Work on O=C(O)c1cn(C2CC2)c2cc(N3CCNCC3)c(F)cc2c1=O [CIPROFLOXACIN] yielded an MIC [15] of 189 µM (≈ 62.6 µg/mL) and an ED50 [16] of 4.53 mg/kg.

Work on COc1c(N2CCNC(C)C2)c(F)cc2c(=O)c(C(=O)O)cn(C3CC3)c12 (configuration not stated) [GATIFLOXACIN] yielded an MIC [17] of 0.06 to 16 µg/mL (≈ 0.16 to 42.6 µM) and an MIC [18] of 0.06 to 16 µg/mL (≈ 0.16 to 42.6 µM).

Cc1ncc([N+](=O)[O-])n1CCO [METRONIDAZOLE] was tested, and the zone of inhibition at 8 µg/disc [19] was 16.3 mm, the zone of inhibition at 8 µg/disc [20] was 11 mm and the zone of inhibition at 8 µg/disc [21] was 18 mm. For the same compound, the zone of inhibition at 2.5 µg/disc [22] was 9 to 22 mm, the zone of inhibition at 2.5 µg/disc [23] was 9 to 22 mm and the zone of inhibition at 2.5 µg/disc [24] was 9 to 22 mm. For the same compound, the MIC90 [4] was > 32 µg/mL.

With CCn1cc(C(=O)O)c(=O)c2cc(F)c(N3CCNCC3)cc21 [NORFLOXACIN] the MIC [25] was 0.13 to 1 µg/mL (≈ 0.407 to 3.13 µM), the MIC [26] was 0.13 to 1 µg/mL (≈ 0.407 to 3.13 µM) and the MIC [27] was 0.13 to 1 µg/mL (≈ 0.407 to 3.13 µM). The MIC [28] was 0.13 to 1 µg/mL (≈ 0.407 to 3.13 µM), the MIC [29] was 0.13 to 1 µg/mL (≈ 0.407 to 3.13 µM) and the ED50 [16] was 5.6 mg/kg. For the same compound, the MIC [30] was 13 to 1600 µM (≈ 4.15 to 512 µg/mL), the MIC [31] was 13 to 1600 µM (≈ 4.15 to 512 µg/mL) and the MIC [32] was 13 to 1600 µM (≈ 4.15 to 512 µg/mL). The MIC [33] was 13 to 1600 µM (≈ 4.15 to 512 µg/mL), the MIC [34] was 13 to 1600 µM (≈ 4.15 to 512 µg/mL) and the MIC [35] was 13 to 1600 µM (≈ 4.15 to 512 µg/mL). For the same compound, the MIC [36] was 13 to 1600 µM (≈ 4.15 to 512 µg/mL), the MIC [37] was 13 to 1600 µM (≈ 4.15 to 512 µg/mL) and the MIC [38] was 100 µM (≈ 31.9 µg/mL).

From ChEMBL document CHEMBL4304773, “Nitroimidazole-containing compounds and their antibacterial and antitubercular activities” (2019)
